Source: patent US5856175A, “Device for detecting microorganisms” (priority 1996, dated 1999)

Key:
[1] = Table 2, cited from earlier work; for pH range: acid-base indicator
[2] = system: Alcaligenes odorans 33585; test: Pattern of inhibition using silicone-emulsion CO2 sensors (Table 3); type: cell-based; conditions: 4 h, 37° C., 5×10^7 CFU/ml
Excerpt: (§1) Microbial identification using the described CO2 sensors can also be based on the principle of growth inhibition. This system differs from the classical biochemical identification systems, as identification is based on selective growth inhibition by inhibitory agents, such as dyes, antibiotics, and other substances. Once again, the production of CO2 is the measure of growth. The growth pattern produced in the presence of these inhibitory agents identifies the species of the test microorganism. The amount of growth is compared with a growth control well that contains no inhibitor. A profile is derived using a two-stage quadratic discriminate analysis based on the results derived from the battery of inhibitory agents.
(§2) Microtiter plates (96 flat bottom wells) containing 0.05% xylenol blue silicone-emulsion sensors were filled with 100 microliters of microbial growth medium containing no inhibitors (growth control wells) and eighteen different dyes, antibiotics, and other inhibitory substances. Final concentrations of the inhibitors were achieved after addition of 100 microliters of inoculum (final inoculum of 5×10^7 CFU/ml) of the representative microorganisms.
(§3) After inoculating the microtiter tray, it was sealed with a pressure sensitive plastic plate sealer and initial readings were taken with a reflectance reader. The plate was then placed into a 37° C. incubator. After four hours incubation, the plate was removed and final reflectance readings were taken.

Escherichia coli 33582 = test: as above; type: cell-based; conditions: 4 h, 37° C., 5×10^7 CFU/ml
Excerpt: as §1, §2, §3

Proteus mirabilis 33583 = test: as above; type: cell-based; conditions: 4 h, 37° C., 5×10^7 CFU/ml
Excerpt: as §1, §2, §3

[3] = system: Pseudomonas aeruginosa 33584; test: as above; type: cell-based; conditions: 4 h, 37° C., 5×10^7 CFU/ml
Excerpt: as §1, §2, §3

Nc1c(/N=N/c2ccc(-c3ccc(/N=N/c4cc(S(=O)(=O)O)c5ccccc5c4N)cc3)cc2)cc(S(=O)(=O)O)c2ccccc12 [Congo red]
pH range [1]: 3.0-5.0 pH

[O-][n+]1ccccc1SSc1cccc[n+]1[O-] [Omadine disulfide]
Percent growth as compared to a growth control without antibiotics ([2]; 5.5 mcg): 36%
Percent growth as compared to a growth control without antibiotics (Escherichia coli 33582; 5.5 mcg): 10%
Percent growth as compared to a growth control without antibiotics (Proteus mirabilis 33583; 5.5 mcg): 71%
Percent growth as compared to a growth control without antibiotics ([3]; 5.5 mcg): 94%

Cc1c(C2(c3cc(C(C)C)c(O)c(Br)c3C)OS(=O)(=O)c3ccccc32)cc(C(C)C)c(O)c1Br [Bromothymol blue]
pH range [1]: 6.0-7.6 pH

CN(C)c1ccc(N=Nc2ccc(S(=O)(=O)O)cc2)cc1 [Methyl orange]
pH range [1]: 3.1-4.4 pH

O=S1(=O)OC(c2cc(Br)c(O)c(Br)c2)(c2cc(Br)c(O)c(Br)c2)c2c(Br)c(Br)c(Br)c(Br)c21 [Tetrabromophenol blue]
pH range [1]: 3.0-4.6 pH

Colistin
Percent growth as compared to a growth control without antibiotics ([2]; 13 mcg): -44%
Percent growth as compared to a growth control without antibiotics (Escherichia coli 33582; 13 mcg): 3%
Percent growth as compared to a growth control without antibiotics (Proteus mirabilis 33583; 13 mcg): 114%
Percent growth as compared to a growth control without antibiotics ([3]; 13 mcg): 34%

O=C1OC(c2ccc(O)cc2)(c2ccc(O)cc2)c2ccccc21 [Phenolphthalein]
pH range [1]: 8.3-10.0 pH

O=S1(=O)OC(c2ccc(O)cc2)(c2ccc(O)cc2)c2ccccc21 [Phenol red]
pH range [1]: 6.8-8.4 pH

CN(C)c1ccc(/N=N/c2ccccc2C(=O)O)cc1 [Methyl red]
pH range [1]: 4.2-6.3 pH

Cc1cc(C2(c3ccc(O)c(C)c3)OS(=O)(=O)c3ccccc32)ccc1O [Cresol red]
pH range (acid range) [1]: 0.2-1.8 pH
pH range (basic range) [1]: 7.2-8.8 pH

Acriflavine
Percent growth as compared to a growth control without antibiotics ([2]; 30 mcg): 55%
Percent growth as compared to a growth control without antibiotics (Escherichia coli 33582; 30 mcg): 5%
Percent growth as compared to a growth control without antibiotics (Proteus mirabilis 33583; 30 mcg): 68%
Percent growth as compared to a growth control without antibiotics ([3]; 30 mcg): 84%

Cc1cc(O)c(C(C)C)cc1C1(c2cc(C(C)C)c(O)cc2C)OC(=O)c2ccccc21 [Thymolphthalein]
pH range [1]: 9.3-10.5 pH

Cc1cc2nc3ccc(N(C)C)cc3nc2cc1N [Neutral red]
pH range [1]: 6.8-8.0 pH

O=S(=O)(O)c1ccc(N=Nc2ccc(Nc3ccccc3)cc2)cc1 [Tropaeolin OO]
pH range [1]: 1.3-3.0 pH

O=S1(=O)OC(c2ccc(O)c(Cl)c2)(c2ccc(O)c(Cl)c2)c2ccccc21 [Chlorophenol red]
pH range [1]: 4.8-6.4 pH

Cc1cc(C2(c3cc(C)c(O)c(Br)c3)OS(=O)(=O)c3ccccc32)cc(Br)c1O [Bromocresol purple]
pH range [1]: 5.2-6.8 pH

O=S(=O)(O)c1ccc(N=Nc2ccc(O)cc2O)cc1 [Tropaeolin O]
pH range [1]: 11.1-12.7 pH

[Cl][Co][Cl] [Cobalt chloride]
Percent growth as compared to a growth control without antibiotics ([2]; 205 mcg): 35%
Percent growth as compared to a growth control without antibiotics (Escherichia coli 33582; 205 mcg): 27%
Percent growth as compared to a growth control without antibiotics (Proteus mirabilis 33583; 205 mcg): 17%
Percent growth as compared to a growth control without antibiotics ([3]; 205 mcg): 52%

CC1(C)S[C@@H]2[C@H](NC(=O)C(C(=O)O)c3ccccc3)C(=O)N2[C@H]1C(=O)O (some centres unmarked) [Carbenicillin]
Percent growth as compared to a growth control without antibiotics ([2]; 40 mcg): 77%
Percent growth as compared to a growth control without antibiotics (Escherichia coli 33582; 40 mcg): 54%
Percent growth as compared to a growth control without antibiotics (Proteus mirabilis 33583; 40 mcg): 69%
Percent growth as compared to a growth control without antibiotics ([3]; 40 mcg): 89%

Cc1cc(O)c(C(C)C)cc1C1(c2cc(C(C)C)c(O)cc2C)OS(=O)(=O)c2ccccc21 [Thymol blue]
pH range (acid range) [1]: 1.2-2.8 pH
pH range (basic range) [1]: 8.0-9.6 pH

CN(C)c1ccc2nc3ccc(=[N+](C)C)cc-3sc2c1 [Methylene blue]
Percent growth as compared to a growth control without antibiotics ([2]; 255 mcg): 56%
Percent growth as compared to a growth control without antibiotics (Escherichia coli 33582; 255 mcg): 20%
Percent growth as compared to a growth control without antibiotics (Proteus mirabilis 33583; 255 mcg): 80%
Percent growth as compared to a growth control without antibiotics ([3]; 255 mcg): 90%

[N-]=[N+]=[N-] [Sodium azide]
Percent growth as compared to a growth control without antibiotics ([2]; 75 mcg): 47%
Percent growth as compared to a growth control without antibiotics (Escherichia coli 33582; 75 mcg): 6%
Percent growth as compared to a growth control without antibiotics (Proteus mirabilis 33583; 75 mcg): 35%
Percent growth as compared to a growth control without antibiotics ([3]; 75 mcg): 47%

Azolitmin [Azolitmin (litmus)]
pH range [1]: 5.0-8.0 pH

Brilliant green
Percent growth as compared to a growth control without antibiotics ([2]; 3 mcg): 37%
Percent growth as compared to a growth control without antibiotics (Escherichia coli 33582; 3 mcg): 104%
Percent growth as compared to a growth control without antibiotics (Proteus mirabilis 33583; 3 mcg): 84%
Percent growth as compared to a growth control without antibiotics ([3]; 3 mcg): 101%

CN(C)c1ccc(N=Nc2ccccc2)cc1 [Methyl Yellow]
pH range [1]: 2.9-4.0 pH

CN(C)c1ccc(C(=C2C=CC(=[N+](C)C)C=C2)c2ccccc2)cc1 [Malachite green]
Percent growth as compared to a growth control without antibiotics ([2]; 3 mcg): 66%
Percent growth as compared to a growth control without antibiotics (Escherichia coli 33582; 3 mcg): 40%
Percent growth as compared to a growth control without antibiotics (Proteus mirabilis 33583; 3 mcg): 107%
Percent growth as compared to a growth control without antibiotics ([3]; 3 mcg): 87%

O=C(O)c1cc(Br)cc(Br)c1O [Dibromosalicyclic acid]
Percent growth as compared to a growth control without antibiotics ([2]; 750 mcg): 25%
Percent growth as compared to a growth control without antibiotics (Escherichia coli 33582; 750 mcg): 83%
Percent growth as compared to a growth control without antibiotics (Proteus mirabilis 33583; 750 mcg): 38%
Percent growth as compared to a growth control without antibiotics ([3]; 750 mcg): 88%

CCCCCCCCCCCCN [Dodecylamine]
Percent growth as compared to a growth control without antibiotics ([2]; 18.75 mcg): 106%
Percent growth as compared to a growth control without antibiotics (Escherichia coli 33582; 18.75 mcg): 99%
Percent growth as compared to a growth control without antibiotics (Proteus mirabilis 33583; 18.75 mcg): 108%
Percent growth as compared to a growth control without antibiotics ([3]; 18.75 mcg): 118%

Alizarin yellow
pH range [1]: 10.1-12.0 pH

N[C@@H]1CON=C1O [Cycloserine]
Percent growth as compared to a growth control without antibiotics ([2]; 78 mcg): 116%
Percent growth as compared to a growth control without antibiotics ([2]; 240 mcg): 27%
Percent growth as compared to a growth control without antibiotics (Escherichia coli 33582; 78 mcg): 13%
Percent growth as compared to a growth control without antibiotics (Escherichia coli 33582; 240 mcg): 8%
Percent growth as compared to a growth control without antibiotics (Proteus mirabilis 33583; 78 mcg): 107%
Percent growth as compared to a growth control without antibiotics (Proteus mirabilis 33583; 240 mcg): 26%
Percent growth as compared to a growth control without antibiotics ([3]; 78 mcg): 56%
Percent growth as compared to a growth control without antibiotics ([3]; 240 mcg): 66%

CC(=O)OCC1=C(C(=O)O)N2C(=O)[C@@H](NC(=O)Cc3cccs3)[C@H]2SC1 [Cephalothin]
Percent growth as compared to a growth control without antibiotics ([2]; 13.5 mcg): 66%
Percent growth as compared to a growth control without antibiotics (Escherichia coli 33582; 13.5 mcg): 53%
Percent growth as compared to a growth control without antibiotics (Proteus mirabilis 33583; 13.5 mcg): 26%
Percent growth as compared to a growth control without antibiotics ([3]; 13.5 mcg): 108%

CO[C@@H]1[C@@H](OC(N)=O)[C@@H](O)[C@H](Oc2ccc3c(O)c(NC(=O)c4ccc(O)c(CC=C(C)C)c4)c(=O)oc3c2C)OC1(C)C [Novobiocin]
Percent growth as compared to a growth control without antibiotics ([2]; 48 mcg): 16%
Percent growth as compared to a growth control without antibiotics (Escherichia coli 33582; 48 mcg): 9%
Percent growth as compared to a growth control without antibiotics (Proteus mirabilis 33583; 48 mcg): 48%
Percent growth as compared to a growth control without antibiotics ([3]; 48 mcg): 85%

O=c1[nH]c(=O)n([C@H]2C[C@H](O)[C@@H](CO)O2)cc1F [Floxuridine]
Percent growth as compared to a growth control without antibiotics ([2]; 36 mcg): 75%
Percent growth as compared to a growth control without antibiotics (Escherichia coli 33582; 36 mcg): 55%
Percent growth as compared to a growth control without antibiotics (Proteus mirabilis 33583; 36 mcg): 35%
Percent growth as compared to a growth control without antibiotics ([3]; 36 mcg): 79%

O=S1(=O)OC(c2cc(Br)c(O)c(Br)c2)(c2cc(Br)c(O)c(Br)c2)c2ccccc21 [Bromophenol blue]
pH range [1]: 3.0-4.6 pH

CC(=O)[O-].[Tl+] [Thallous acetate]
Percent growth as compared to a growth control without antibiotics ([2]; 150 mcg): 47%
Percent growth as compared to a growth control without antibiotics (Escherichia coli 33582; 150 mcg): 40%
Percent growth as compared to a growth control without antibiotics (Proteus mirabilis 33583; 150 mcg): 68%
Percent growth as compared to a growth control without antibiotics ([3]; 150 mcg): 34%

Cc1c(C2(c3cc(Br)c(O)c(Br)c3C)OS(=O)(=O)c3ccccc32)cc(Br)c(O)c1Br [Bromocresol green (blue), Bromocresol green]
pH range [1]: 3.6-5.2 pH

Cc1cc(O)ccc1C1(c2ccc(O)cc2C)OS(=O)(=O)c2ccccc21 [m-Cresol purple]
pH range (acid range) [1]: 1.0-2.6 pH
pH range (basic range) [1]: 7.6-9.2 pH
